Reference: patent publication US10577378B2, “EIF4A-inhibiting compounds and methods related thereto” (eFFECTOR Therapeutics, Inc., priority 2015, dated 2020)

System: MDA-MB-231 human breast cancer cells
Assay: Cell proliferation assay (CellTiter-Glo, 72 hours treatment)
Assay type: cell-based
Details: Homo sapiens; MDA-MB-231 cells, 72 hours at 37° C., CellTiter-Glo; read-out: MDA-MB-231 cell proliferation assay (IC50)
Method in brief: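 MDA-MB-231 cells seeded at 2,500 cells/well, treated next day with compound or DMSO vehicle for 72 h at 37 °C. Proliferation read by CellTiter-Glo; IC50 from sigmoidal non-linear regression, binned as +++ (<100 nM), ++ (100–1000 nM), + (>1000 nM).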

Compound	IC50
COc1cncc2c1[C@]1(O)[C@@H](CNCc3ccnn3C)[C@H](CO)[C@@H](c3ccccc3)[C@]1(c1ccc(C#N)cc1)O2 (racemic) [204F, Rac-4-((4bR,5R,6R,7S,7aR)-4b-hydroxy-6-(hydroxymethyl)-4-methoxy-5-((((1-methyl-1H-pyrazol-5-yl)methyl)amino)methyl)-7-phenyl-4b,5,6,7-tetrahydro-7aH-cyclopenta[4,5]furo[2,3-c]pyridin-7a-yl)benzonitrile]	< 100 nM
COc1cncc2c1[C@]1(O)[C@@H](CN(C)C)[C@H](CO)[C@@H](c3ccccc3)[C@]1(c1ccc(Br)cc1)O2 (racemic) [205F, Rac-(4bR,5R,6R,7S,7aR)-7a-(4-bromophenyl)-5-((dimethylamino)methyl)-6-(hydroxymethyl)-4-methoxy-7-phenyl-5,6,7,7a-tetrahydro-4bH-cyclopenta[4,5]furo[2,3-c]pyridin-4b-ol]	< 100 nM
COc1cncc2c1[C@]1(O)[C@@H](CN(C)C)[C@H](CO)[C@@H](c3ccccc3)[C@]1(c1ccc(C#N)cc1)O2 (racemic) [206F, Rac-4-((4bR,5R,6R,7S,7aR)-5-((dimethylamino)methyl)-4b-hydroxy-6-(hydroxymethyl)-4-methoxy-7-phenyl-4b,5,6,7-tetrahydro-7aH-cyclopenta[4,5]furo[2,3-c]pyridin-7a-yl)benzonitrile]	< 100 nM
COc1nc(C#N)cc2c1[C@]1(O)[C@H](O)[C@H](CN3CC(F)(F)C3)[C@@H](c3ccccc3)[C@]1(c1ccc(C#N)cc1)O2 (racemic) [207Fa, Rac-(5aR,6S,7S,8R,8aS)-5a-(4-cyanophenyl)-7-((3,3-difluoroazetidin-1-yl)methyl)-8,8a-dihydroxy-1-methoxy-6-phenyl-5a,7,8,8a-tetrahydro-6H-cyclopenta[4,5]furo[3,2-c]pyridine-3-carbonitrile]	100 to 1000 nM
COc1nc(Cl)cc2c1[C@]1(O)[C@H](O)[C@H](CN3CC(F)(F)C3)[C@@H](c3ccccc3)[C@]1(c1ccc(C#N)cc1)O2 (racemic) [207Fb, Rac-4-((5aR,6S,7S,8R,8aS)-3-chloro-7-((3,3-difluoroazetidin-1-yl)methyl)-8,8a-dihydroxy-1-methoxy-6-phenyl-6,7,8,8a-tetrahydro-5aH-cyclopenta[4,5]furo[3,2-c]pyridin-5a-yl)benzonitrile]	100 to 1000 nM
COc1nc(C#N)cc2c1[C@]1(O)[C@H](O)[C@H](CN(C)CC(F)F)[C@@H](c3ccccc3)[C@]1(c1ccc(C#N)cc1)O2 (racemic) [208Fa, Rac-(5aR,6S,7S,8R,8aS)-5a-(4-cyanophenyl)-7-(((2,2-difluoroethyl)(methyl)amino)methyl)-8,8a-dihydroxy-1-methoxy-6-phenyl-5a,7,8,8a-tetrahydro-6H-cyclopenta[4,5]furo[3,2-c]pyridine-3-carbonitrile]	100 to 1000 nM
COc1nc(Cl)cc2c1[C@]1(O)[C@H](O)[C@H](CN(C)CC(F)F)[C@@H](c3ccccc3)[C@]1(c1ccc(C#N)cc1)O2 (racemic) [208Fb, Rac-4-((5aR,6S,7S,8R,8aS)-3-chloro-7-(((2,2-difluoroethyl)(methyl)amino)methyl)-8,8a-dihydroxy-1-methoxy-6-phenyl-6,7,8,8a-tetrahydro-5aH-cyclopenta[4,5]furo[3,2-c]pyridin-5a-yl)benzonitrile]	100 to 1000 nM
COc1nc(Cl)cc2c1[C@]1(O)[C@@H](CN(C)C)[C@H](CO)[C@@H](c3ccccc3)[C@]1(c1ccc(Br)cc1)O2 (racemic) [209F, Rac-(5aR,6S,7R,8R,8aR)-5a-(4-bromophenyl)-3-chloro-8-((dimethylamino)methyl)-7-(hydroxymethyl)-1-methoxy-6-phenyl-5a,6,7,8-tetrahydro-8aH-cyclopenta[4,5]furo[3,2-c]pyridin-8a-ol]	< 100 nM
COc1nc(C#N)cc2c1[C@]1(O)[C@@H](CN(C)C)[C@H](CO)[C@@H](c3ccccc3)[C@]1(c1ccc(C#N)cc1)O2 (racemic) [210F, Rac-(5aR,6S,7R,8R,8aR)-5a-(4-cyanophenyl)-8-((dimethylamino)methyl)-8a-hydroxy-7-(hydroxymethyl)-1-methoxy-6-phenyl-5a,7,8,8a-tetrahydro-6H-cyclopenta[4,5]furo[3,2-c]pyridine-3-carbonitrile]	< 100 nM
COc1nc(C#N)cc2c1[C@]1(O)[C@H](O)[C@H](CN3CC(F)C3)[C@@H](c3ccccc3)[C@]1(c1ccc(C#N)cc1)O2 (racemic) [211Fa, Rac-(5aR,6S,7S,8R,8aS)-5a-(4-cyanophenyl)-7-((3-fluoroazetidin-1-yl)methyl)-8,8a-dihydroxy-1-methoxy-6-phenyl-5a,7,8,8a-tetrahydro-6H-cyclopenta[4,5]furo[3,2-c]pyridine-3-carbonitrile]	< 100 nM
COc1nc(Cl)cc2c1[C@]1(O)[C@H](O)[C@H](CN3CC(F)C3)[C@@H](c3ccccc3)[C@]1(c1ccc(C#N)cc1)O2 (racemic) [211Fb, Rac-4-((5aR,6S,7S,8R,8aS)-3-chloro-7-((3-fluoroazetidin-1-yl)methyl)-8,8a-dihydroxy-1-methoxy-6-phenyl-6,7,8,8a-tetrahydro-5aH-cyclopenta[4,5]furo[3,2-c]pyridin-5a-yl)benzonitrile]	< 100 nM
COc1nc(C#N)cc2c1[C@]1(O)[C@@H](CN3CCC(F)(F)CC3)[C@H](CO)[C@@H](c3ccccc3)[C@]1(c1ccc(C#N)cc1)O2 (racemic) [213F, Rac-(5aR,6S,7R,8R,8aR)-5a-(4-cyanophenyl)-8-((4,4-difluoropiperidin-1-yl)methyl)-8a-hydroxy-7-(hydroxymethyl)-1-methoxy-6-phenyl-5a,7,8,8a-tetrahydro-6H-cyclopenta[4,5]furo[3,2-c]pyridine-3-carbonitrile]	< 100 nM
CC1(C)COCCN1C[C@H]1[C@@H](O)[C@@]2(O)c3ncc(Cl)cc3O[C@@]2(c2ccc(Br)cc2)[C@@H]1c1ccccc1 (racemic) [214F, Rac-(5aR,6S,7S,8R,8aS)-5a-(4-bromophenyl)-3-chloro-7-((3,3-dimethylmorpholino)methyl)-6-phenyl-5a,6,7,8-tetrahydro-8aH-cyclopenta[4,5]furo[3,2-b]pyridine-8,8a-diol]	100 to 1000 nM
COc1nc(Cl)cc2c1[C@]1(O)[C@H](O)[C@H](C(=O)N3CC(C(F)F)C3)[C@@H](c3ccccc3)[C@]1(c1ccc(Br)cc1)O2 (racemic) [215F, Rac-((5aR,6S,7R,8R,8aS)-5a-(4-bromophenyl)-3-chloro-8,8a-dihydroxy-1-methoxy-6-phenyl-5a,7,8,8a-tetrahydro-6H-cyclopenta[4,5]furo[3,2-c]pyridin-7-yl)(3-(difluoromethyl)azetidin-1-yl)methanone]	< 100 nM
COc1nc(Cl)cc2c1[C@]1(O)[C@H](O)[C@H](CN3CC(C(F)F)C3)[C@@H](c3ccccc3)[C@]1(c1ccc(C#N)cc1)O2 (racemic) [217F, rac-4-((5aR,6S,7S,8R,8aS)-3-chloro-7-((3-(difluoromethyl)azetidin-1-yl)methyl)-8,8a-dihydroxy-1-methoxy-6-phenyl-6,7,8,8a-tetrahydro-5aH-cyclopenta[4,5]furo[3,2-c]pyridin-5a-yl)benzonitrile]	< 100 nM
COc1nc(C#N)cc2c1[C@]1(O)[C@H](O)[C@H](CN3CC(C(F)F)C3)[C@@H](c3ccccc3)[C@]1(c1ccc(C#N)cc1)O2 (racemic) [218F, Rac-(5aR,6S,7S,8R,8aS)-5a-(4-cyanophenyl)-7-((3-(difluoromethyl)azetidin-1-yl)methyl)-8,8a-dihydroxy-1-methoxy-6-phenyl-5a,7,8,8a-tetrahydro-6H-cyclopenta[4,5]furo[3,2-c]pyridine-3-carbonitrile]	< 100 nM
COc1nc(Cl)cc2c1[C@]1(O)[C@H](O)[C@H](C(=O)N3CCC34CC4(F)F)[C@@H](c3ccccc3)[C@]1(c1ccc(Br)cc1)O2 (mixture of isomers) [219F, Rac-((5aR,6S,7R,8R,8aS)-5a-(4-bromophenyl)-3-chloro-8,8a-dihydroxy-1-methoxy-6-phenyl-5a,7,8,8a-tetrahydro-6H-cyclopenta[4,5]furo[3,2-c]pyridin-7-yl)(1,1-difluoro-4-azaspiro[2.3]hexan-4-yl)methanone]	< 100 nM
COc1nc(Cl)cc2c1[C@]1(O)[C@H](O)[C@H](CN3CCC34CC4(F)F)[C@@H](c3ccccc3)[C@]1(c1ccc(Br)cc1)O2 (mixture of isomers) [220F, Rac-(5aR,6S,7S,8R,8aS)-5a-(4-bromophenyl)-3-chloro-7-((1,1-difluoro-4-azaspiro[2.3]hexan-4-yl)methyl)-1-methoxy-6-phenyl-5a,6,7,8-tetrahydro-8aH-cyclopenta[4,5]furo[3,2-c]pyridine-8,8a-diol]	< 100 nM
COc1nc(C#N)cc2c1[C@]1(O)[C@H](O)[C@H](CN3CCC34CC4(F)F)[C@@H](c3ccccc3)[C@]1(c1ccc(C#N)cc1)O2 (mixture of isomers) [221F, Rac-(5aR,6S,7S,8R,8aS)-5a-(4-cyanophenyl)-7-((1,1-difluoro-4-azaspiro[2.3]hexan-4-yl)methyl)-8,8a-dihydroxy-1-methoxy-6-phenyl-5a,7,8,8a-tetrahydro-6H-cyclopenta[4,5]furo[3,2-c]pyridine-3-carbonitrile]	< 100 nM
COc1nc(Cl)cc2c1[C@]1(O)[C@H](O)[C@H](CN3CCC34CC4(F)F)[C@@H](c3ccccc3)[C@]1(c1ccc(C#N)cc1)O2 (mixture of isomers) [222F, Rac-4-((5aR,6S,7S,8R,8aS)-3-chloro-7-((1,1-difluoro-4-azaspiro[2.3]hexan-4-yl)methyl)-8,8a-dihydroxy-1-methoxy-6-phenyl-6,7,8,8a-tetrahydro-5aH-cyclopenta[4,5]furo[3,2-c]pyridin-5a-yl)benzonitrile]	< 100 nM
CNC[C@H]1[C@@H](O)[C@@]2(O)c3c(cc(Cl)nc3OC)O[C@@]2(c2ccc(C#N)cc2)[C@@H]1c1ccccc1 (racemic) [224F, Rac-4-((5aR,6S,7S,8R,8aS)-3-chloro-8,8a-dihydroxy-1-methoxy-7-((methylamino)methyl)-6-phenyl-6,7,8,8a-tetrahydro-5aH-cyclopenta[4,5]furo[3,2-c]pyridin-5a-yl)benzonitrile]	< 100 nM
